In patent publication US8822520B2, “Substituted bicyclic HCV inhibitors” (Presidio Pharmaceuticals, Inc., priority 2010, dated 2014):
Where two headings read alike, the source gives them in different places.

System: HCV genotype 1b replicon in Huh 7 cells (HCV 1b_Huh-Luc/Neo-ET cell line)
Test: HCV replicon assay (luciferase readout)
Assay type: cell-based
Details: Hepatitis C virus
Experimental: Biological activity of the compounds of the invention was determined using an HCV replicon assay. The HCV 1b_Huh-Luc/Neo-ET cell line persistently expressing a bicistronic genotype 1b replicon in Huh 7 cells was obtained from ReBLikon GMBH. This cell line was used to test compound inhibition using luciferase enzyme activity readout as a measurement of compound inhibition of replicon levels.
On Day 1 (the day after plating cells), each compound is added in triplicate to the cells. Plates are incubated for 72 h prior to determining luciferase levels. Enzyme activity was measured using a Bright-Glo Kit (cat. number E2620) manufactured by Promega Corporation. The following equation was used to generate a percent control value for each compound. % Control=(Compound Luciferase Level/Control Luciferase Level)*100
The EC50 value was determined using GraphPad Prism and the following equation: Y=Bottom asymptote+(Top asymptote−Bottom asymptote)/(1+10^((Log EC50−X)*HillSlope))
EC50 values of compounds are determined several times in the replicon assay to generate average EC50 values.

[1] = Huh-7, Table 1, EC50 range class, replicon luciferase, 72 h incubation, average EC50, read-out: Inhibition of HCV genotype 1b
[2] = Huh-7, 72 h, read-out: Inhibition of HCV genotype lb

`COCCOc1c(-c2ccc(-c3cnc([C@@H]4COCCN4C(=O)[C@@H](NC(=O)OC)C(C)C)[nH]3)cc2)ccc(-c2cnc([C@@H]3CCCN3C(=O)[C@@H](NC(=O)OC)C(C)C)[nH]2)c1OCCOC` [Compound 40] gave an EC50 [1] of 1 to 9.9 nM.

`COCCOc1c(-c2ccc(-c3cnc([C@@H]4CSCN4C(=O)[C@@H](NC(=O)OC)C(C)C)[nH]3)cc2)ccc(-c2cnc([C@@H]3CCCN3C(=O)[C@@H](NC(=O)OC)C(C)C)[nH]2)c1OCCOC` [Compound 41] gave an EC50 [1] of 1 to 9.9 nM.

Compound `COC(=O)N[C@H](C(=O)N1CCC[C@H]1c1ncc(-c2ccc3cc2OCCOCCOCCOCCOCCOc2cc-3ccc2-c2cnc([C@@H]3CCCN3C(=O)[C@@H](NC(=O)OC)C(C)C)[nH]2)[nH]1)C(C)C` [Compound 42] has an EC50 [1] of 1 to 9.9 nM.

Work on `COC(=O)N[C@H](C(=O)N1CCC[C@H]1c1ncc(-c2ccc3c(c2)OCCOCCOCCOCCOCCOc2cc-3ccc2-c2cnc([C@@H]3CCCN3C(=O)[C@@H](NC(=O)OC)C(C)C)[nH]2)[nH]1)C(C)C` [Compound 43] yielded an EC50 [1] of 1 to 9.9 nM.

`COC(=O)N[C@H](C(=O)N1CCC[C@H]1c1ncc(-c2ccc3c(c2)OCCOCCOCCOc2cc(-c4cnc([C@@H]5CCCN5C(=O)[C@@H](NC(=O)OC)C(C)C)[nH]4)ccc2-3)[nH]1)C(C)C` [Compound 44] gave an EC50 [1] of 1 to 9.9 nM.

With `COCCOc1c(-c2ccc(-c3cnc([C@@H]4CCCN4C(=O)[C@@H](NC(=O)OC)C(C)C)[nH]3)cc2)ccc(-c2cnc([C@@H]3CCCN3C(=O)[C@@H](c3ccccc3)N3CCCC3)[nH]2)c1OCCOC` [Compound 45] the EC50 [1] was less than 1 nM.

With `COCCOc1cc(-c2cnc([C@@H]3CCCN3C(=O)[C@@H](NC(=O)OC)C(C)C)[nH]2)ccc1-c1ccc(-c2cnc([C@@H]3CCCN3C(=O)[C@@H](NC(=O)OC)C(C)C)[nH]2)c(OCCOC)c1` [Compound 51] the EC50 [2] was less than 1 nM.

Work on `COCCOc1cc(-c2cnc([C@@H]3CCCN3C(=O)[C@@H](NC(=O)OC)C(C)C)[nH]2)ccc1-c1ccc(-c2cnc([C@@H]3CCCN3C(=O)[C@@H](NC(=O)OC)C(C)C)[nH]2)cc1` [Compound 52] yielded an EC50 [2] of less than 1 nM.

`COCCOc1cc(-c2ccc(-c3cnc([C@@H]4CCCN4C(=O)[C@@H](NC(=O)OC)C(C)C)[nH]3)cc2)ccc1-c1cnc([C@@H]2CCCN2C(=O)[C@@H](NC(=O)OC)C(C)C)[nH]1` [Compound 53] was tested, and the EC50 [2] was less than 1 nM.

Compound `COCCOc1cc(-c2ccc(-c3cnc([C@@H]4CCCN4C(=O)[C@@H](NC(=O)OC)C(C)C)[nH]3)c(OCCOC)c2)ccc1-c1cnc([C@@H]2CCCN2C(=O)[C@@H](NC(=O)OC)C(C)C)[nH]1` [Compound 54] has an EC50 [2] of 1 to 9.9 nM.

`COCCOc1cc(-c2cnc([C@@H]3CCCN3C(=O)[C@@H](NC(=O)OC)C(C)C)[nH]2)c(OCCOC)cc1-c1ccc(-c2cnc([C@@H]3CCCN3C(=O)[C@@H](NC(=O)OC)C(C)C)[nH]2)cc1` [Compound 55] showed an EC50 [2] of less than 1 nM.

Compound `COCCOc1c(-c2ccc(-c3cnc([C@@H]4C[C@@H](O)CN4C(=O)[C@@H](NC(=O)OC)C(C)C)[nH]3)cc2)ccc(-c2cnc([C@@H]3CCCN3C(=O)[C@@H](NC(=O)OC)C(C)C)[nH]2)c1OCCOC` [Compound 60] has an EC50 [2] of less than 1 nM.

`COCCOc1cc(-c2cnc([C@@H]3CCCN3C(=O)[C@H](COC)NC(=O)OC)[nH]2)ccc1-c1ccc(-c2cnc([C@@H]3CCCN3C(=O)[C@H](COC)NC(=O)OC)[nH]2)cc1OCCOC` [Compound 75] was tested, and the EC50 [2] was 1 to 9.9 nM.

Compound `COCCOc1cc(-c2cnc([C@@H]3CCCN3C(=O)[C@@H](NC(=O)OC)C(C)(C)C)[nH]2)ccc1-c1ccc(-c2cnc([C@@H]3CCCN3C(=O)[C@@H](NC(=O)OC)C(C)(C)C)[nH]2)cc1OCCOC` [Compound 76] has an EC50 [2] of less than 1 nM.

In the case of `COCCOc1cc(-c2cnc([C@@H]3CCCN3C(=O)[C@@H](NC(=O)OC)C3CCOCC3)[nH]2)ccc1-c1ccc(-c2cnc([C@@H]3CCCN3C(=O)[C@@H](NC(=O)OC)C3CCOCC3)[nH]2)cc1OCCOC` [Compound 77], the EC50 [2] is reported as 1 to 9.9 nM.

Work on `COCCOc1cc(-c2cnc([C@@H]3CCCN3C(=O)[C@H](NC(=O)OC)c3ccsc3)[nH]2)ccc1-c1ccc(-c2cnc([C@@H]3CCCN3C(=O)[C@H](NC(=O)OC)c3ccsc3)[nH]2)cc1OCCOC` [Compound 78] yielded an EC50 [2] of 1 to 9.9 nM.
